Source: patent US9540691B2, “Assays and methods for selecting a treatment regimen for a subject with depression” (THE GENERAL HOSPITAL CORPORATION, priority 2011, dated 2017)
Read-outs that look alike come from different tables or passages of the source.

Legend:
[1] = system: remitters with MDD at end of double-blind phase; details: for Relapsers (HAM-D-17 > 15) during 12-month maintenance phase: 15 mg/day 6(S)-5-MTHF as an adjuvant
Description: During each visit, patients are administered the HAM-D-28, the CGI, the QIDS-SR, the SAFTEE-SI, the MGH-CPFQ, and the MGH-SFQ (See, e.g., Table 10 below). […] Subjects are also allowed to change their antidepressant during the course of the follow-up, if deemed appropriate. For patients who refuse the 12 months of free follow-up care, a referral to a psychiatrist is offered.

[2] = system: patients with major depressive disorder (MDD) resistant to treatment with SSRIs
Description: Using the sequential parallel design […] For those randomly assigned to the placebo/placebo sequence, both responders and non-responders to placebo during the first phase (n=25) remain on placebo during the second phase. […] Data from the previous double-blind, placebo-controlled study (Trial 1) can be pooled into the instant study (Trial 2) to provide a more accurate estimate of the placebo effect size, with a weighted average from the two Phases 1 (one from Trial 1 and one from Trial 2) and two Phases 2 (one from Trial 1 and one from Trial 2).
The primary efficacy measure can include the change in 17-item Hamilton Rating Scale for Depression (HAM-D-17) score. […] A remission is, for example, defined as a HAM-D-17 score less than 8 at endpoint. Secondary measures of efficacy can include change in CGI-severity, with “clinical response defined” as CGI-S of 1 or 2 at endpoint. Patients with a CGI-I score greater than 5 at any post baseline visit or a 50 percent or greater worsening of depressive symptoms from baseline to that visit are discontinued from the study. Subjects are also discontinued from the study with any emergence of suicidality, homicidality, mania, or psychosis. Additional exemplary instruments that can be administered according to the study schedule include the following: • (1) Structured Clinical Interview for DSM-IV: The SCID-I/P, administered by the clinician, proceeds by modules to diagnose the different Axis I disorders. Questions are asked exactly as written, and each is based on the individual criteria from DSM-IV. Answers are generally rated on a scale of 1-3 (1=doubtful, 2=probable, 3=definite), and, based on the number of positive answers, a diagnosis is determined by a clinician. While the entire SCID-UP is administered at screen, the mood module is administered at each follow up visit. • (2) The MGH Antidepressant Treatment History Questionnaire (MGH-ATR): The MGH-ATR provides specific criteria for the adequate dose and adequate length of a trial for it to be considered a failure, thus allowing clinicians to systematically collect data aimed at assessing the degree of treatment-resistance of the current major depressive episode. • (3) The 28-item Hamilton Depression Scale (HAM-D-28): This version allows scoring of the HAM-D-17, 21-, 25-, and 28-item scales. This instrument is completed by the clinician by using a structured interview and defined anchor points, and aims to quantify the degree of depression over the past 7 days. The HAM-D is the most widely studied instrument for depression, and its reliability and validity are high. • (4) Clinical Global Impressions-Severity and Improvement (CGI-S, CGI-I): These two instruments are scored 1-7 by the clinician based on assessment of the patient's clinical status. They measure, based on history and scores on other instruments: a) Depressive severity (CGI-S) and b) Clinical Improvement (CGI-I). […] Safety Measurements
Data are entered and error-checked at each clinical site involved in the study. Study staff and subjects may have the option to enter self-evaluations into the system directly using DatStat Illume™. The process of data entry is supervised by the DCRP staff. Once the data set is entered and checked, analyses are conducted. Both a completer analysis of all patients finishing the trial and an intent-to-treat analysis examining all patients enrolled into the trial are used to define the severity of depression at endpoint. Examination of both study completers and all patients randomized can provide the broadest assessment of the effects of treatment in trials of such kind. The data from Trial 2 can be pooled with those from Trial 1 with the sequential parallel comparison design, to provide an estimate of the placebo response based on a larger sample size. […] Let p1, q1 be the response rates to the first administration of drug and placebo respectively and let p2, q2 be the responses rates to the second treatment.

[3] = 7.5 mg/day adjunct to SSRI, Phase 1
[4] = 7.5 mg/day adjunct to SSRI, Phase 2 (Phase 1 completers/non-responders only)
[5] = 7.5 mg/day adjunct to SSRI, pooled Phases 1 and 2 (SPCD)

CN1c2c(nc(N)[nH]c2=O)NC[C@@H]1CNc1ccc(C(=O)N[C@@H](CCC(=O)O)C(=O)O)cc1 [6(S)-5-MTHF, 6(S)-5-methyltetrahydrofolate]
Relapsers (HAM-D-17 > 15) during 12-month maintenance phase ([1]; Trial 1 remitters (2 entering)): 0
Relapsers (HAM-D-17 > 15) during 12-month maintenance phase ([1]; Trial 2 remitters (9 entering)): 0
relapse during 12-month maintenance phase (in words) ([1]; remitters at end of double-blind phase, adjunctive 15 mg/day): did not have a relapse
efficacy as an adjunct to the SSRIs (in words) ([2]; 7.5 mg/day): not effective
CGI-S Mean score reduction (SD) [2, 3]: −0.5 (0.9)
HDRS-17 % Remission [2, 3]: 11.1% (4)
HDRS-17 % Response [2, 3]: 19.8% (7)
HDRS-17 Mean score reduction (SD) [2, 3]: −4.3 (5.0)
QIDS-SR % Remission [2, 3]: 0.0% (0)
QIDS-SR % Responsive [2, 3]: 25.0% (9)
QIDS-SR Mean score reduction (SD) [2, 3]: −4.6 (5.1)
CGI-S Mean score reduction (SD) [2, 4]: −0.5 (0.7)
HDRS-17 % Remission [2, 4]: 14.2% (5)
HDRS-17 % Response [2, 4]: 17.1% (6)
HDRS-17 Mean score reduction (SD) [2, 4]: −3.1 (4.2)
QIDS-SR % Remission [2, 4]: 8.5% (3)
QIDS-SR % Responsive [2, 4]: 8.5% (3)
QIDS-SR Mean score reduction (SD) [2, 4]: 4.8 (4.1)
CGI-S Mean score reduction [2, 5]: −0.53
HDRS-17 Mean score reduction [2, 5]: −3.70
QIDS-SR % Remission [2, 5]: 4.3%
QIDS-SR % Responsive [2, 5]: 19.8%
QIDS-SR Mean score reduction [2, 5]: −0.25
increase in response and remission rate compared to placebo with SSRIs ([2]; 15 mg/day in second phase, drug/drug sequence): at least 2 fold
response and remission rate ([2]; dose increased from 7.5 to 15 mg/day in second phase, drug/drug sequence, placebo with SSRIs 9%, p=0.1): 24%
